Assay results published in patent US20110105326A1, “Method for Enhancing the Rainfastness of Glyphosate” (BASF SE, priority 2008, published 2011).

Columns and labels:
Type in all cases: in vivo
[1] = tested on: Echinochloa colonum (ECHCO); assay: herbicidal action with/without simulated rainfall after treatment, Echinochloa colonum; settings: Example 7, carfentrazone 30 g/ha, glyphosate 1080 g/ha, 0.5% v/v Dash in Carfentrazone and mixture
Protocol: (§1) The enhancement of the rainfastness of glyphosate was determined via the herbicidal activity of the mixture comprising glyphosate and the respective rainfastness enhancing herbicidal component B as well as of the single herbicidal components in relation to simulated rainfall at different time intervals.
(§2) The evaluation of the damage caused by the method and the compositions the according to the present invention and the single herbicidal components was carried out using a scale from 0 to 100%, compared to the untreated control plots. Here, 0 means no damage and 100 means complete destruction of the plants of a respective weed or crop species.
(§3) The application was performed with a fixed spayer system with air pressurization and with a tank spray volume of two liters. The speed of the spray device over the plants was adjusted for a spray volume of 200 I/ha. The spray device was a spray barr with four nozzles from the type Teejet XR 11002VS with a space of 50 cm between each nozzle.
(§4) The application was performed at a weed stage of 6 to 8 leaves. After the application of the formulated herbicides the leaves were washed through rain of 20 mm using a fixed rain simulator system at following time interval: 15 min, 30 min, 1, 2, 3, 4 and 6 hours after treatment.

Bidens pilosa (BIDPI) = assay: herbicidal action with/without simulated rainfall after treatment, Bidens pilosa; settings: Example 6, carfentrazone 30 g/ha, glyphosate 1080 g/ha, 0.5% v/v Dash in Carfentrazone and mixture
Protocol: as §1, §2, §3, §4

[2] = tested on: Brachiaria decumbens (BRADE); assay: herbicidal action with/without simulated rainfall after treatment, Brachiaria decumbens; settings: Example 8, carfentrazone 30 g/ha, glyphosate 1080 g/ha, 0.5% v/v Dash in Carfentrazone and mixture
Protocol: as §1, §2, §3, §4

[3] = simulated rainfall 15 min after treatment, 1 DAA
[4] = simulated rainfall 15 min after treatment, 2 DAA
[5] = simulated rainfall 15 min after treatment, 3 DAA
[6] = simulated rainfall 15 min after treatment, 7 DAA
[7] = simulated rainfall 2 hours after treatment, 1 DAA
[8] = simulated rainfall 2 hours after treatment, 2 DAA
[9] = simulated rainfall 2 hours after treatment, 3 DAA
[10] = simulated rainfall 2 hours after treatment, 7 DAA
[11] = without simulated rainfall, 1 DAA
[12] = without simulated rainfall, 2 DAA
[13] = without simulated rainfall, 3 DAA
[14] = without simulated rainfall, 7 DAA
[15] = simulated rainfall 30 min after treatment, 1 DAA
[16] = simulated rainfall 30 min after treatment, 2 DAA
[17] = simulated rainfall 30 min after treatment, 3 DAA
[18] = simulated rainfall 6 hours after treatment, 1 DAA
[19] = simulated rainfall 6 hours after treatment, 2 DAA
[20] = simulated rainfall 6 hours after treatment, 3 DAA

Cc1nn(-c2cc(CC(Cl)C(=O)O)c(Cl)cc2F)c(=O)n1C(F)F (centres unmarked) [Carfentrazone, carfentrazone]
herbicidal action against ECHCO [1, 3]: 9%
herbicidal action against ECHCO [1, 4]: 33.33%
herbicidal action against ECHCO [1, 5]: 36%
herbicidal action against ECHCO [1, 6]: 56%
herbicidal action against ECHCO [1, 7]: 14%
herbicidal action against ECHCO [1, 8]: 32.22%
herbicidal action against ECHCO [1, 9]: 37.66%
herbicidal action against ECHCO [1, 10]: 50.33%
herbicidal action against ECHCO [1, 11]: 14.66%
herbicidal action against ECHCO [1, 12]: 54.66%
herbicidal action against ECHCO [1, 13]: 76.66%
herbicidal action against ECHCO [1, 14]: 76%
herbicidal action against BIDPI (Bidens pilosa (BIDPI); [3]): 51%
herbicidal action against BIDPI (Bidens pilosa (BIDPI); [4]): 54.66%
herbicidal action against BIDPI (Bidens pilosa (BIDPI); [5]): 53.33%
herbicidal action against BIDPI (Bidens pilosa (BIDPI); [15]): 68.66%
herbicidal action against BIDPI (Bidens pilosa (BIDPI); [16]): 87.66%
herbicidal action against BIDPI (Bidens pilosa (BIDPI); [17]): 94.66%
herbicidal action against BIDPI (Bidens pilosa (BIDPI); [7]): 69.33%
herbicidal action against BIDPI (Bidens pilosa (BIDPI); [8]): 89%
herbicidal action against BIDPI (Bidens pilosa (BIDPI); [9]): 92.33%
herbicidal action against BIDPI (Bidens pilosa (BIDPI); [18]): 56%
herbicidal action against BIDPI (Bidens pilosa (BIDPI); [19]): 86.66%
herbicidal action against BIDPI (Bidens pilosa (BIDPI); [20]): 92.33%
herbicidal action against BIDPI (Bidens pilosa (BIDPI); [11]): 69.66%
herbicidal action against BIDPI (Bidens pilosa (BIDPI); [12]): 94.33%
herbicidal action against BIDPI (Bidens pilosa (BIDPI); [13]): 99%
herbicidal action against BRADE [2, 3]: 4%
herbicidal action against BRADE [2, 4]: 10.33%
herbicidal action against BRADE [2, 5]: 11.66%
herbicidal action against BRADE [2, 6]: 17.33%
herbicidal action against BRADE [2, 15]: 10.66%
herbicidal action against BRADE [2, 16]: 19.66%
herbicidal action against BRADE [2, 17]: 11.66%
herbicidal action against BRADE ([2]; simulated rainfall 30 min after treatment, 7 DAA): 18.66%
herbicidal action against BRADE [2, 7]: 15%
herbicidal action against BRADE [2, 8]: 14.33%
herbicidal action against BRADE [2, 9]: 13%
herbicidal action against BRADE [2, 10]: 16.66%
herbicidal action against BRADE [2, 18]: 25%
herbicidal action against BRADE [2, 19]: 29%
herbicidal action against BRADE [2, 20]: 27.66%
herbicidal action against BRADE ([2]; simulated rainfall 6 hours after treatment, 7 DAA): 26%
herbicidal action against BRADE [2, 11]: 3.66%
herbicidal action against BRADE [2, 12]: 18.33%
herbicidal action against BRADE [2, 13]: 24.33%
herbicidal action against BRADE [2, 14]: 40.33%
